Assay results taken from patent publication US20140315972A1, “RS)-2-(2-oxo-4-phenylpyrrolidin-1-yl)acetamide compound having modulatory activity with a commensurate effect, pharmaceutical substance (variants) and its application, composition (variants) thereof” (priority 2011, published 2014).
“And” between values parts separate entries of the source, which are not always exact repeats. Equal entries are not always repeated. Where two headings read alike, the source gives them in different places. Marks after values point to notes of the source that are not given here.

Key:
mice [1] = experiment: Haloperidol-induced catalepsy; format: in vivo; conditions: for decrease of catalepsy severity vs control: 300 mg/kg; for Catalepsy: mice
Procedure: Duration of catalepsy was measured in seconds, after 60, 120 and 180 minutes after the drug administration. Phenotropil was administered intraperitoneally at doses of 50, 100 and 300 mg/kg 15 minutes after haloperidol 0.5 mg/kg. Haloperidol induced catalepsy growing over time. […] At a dose of 50 mg/kg, duration of the catalepsy after 180 min was only 4.8 seconds as compared to controls (63.4 seconds). […] Phenotropil markedly counteracts haloperidol-induced catalepsy, indicating its antiparkinsonian activity.

mice [2] = format: in vivo; conditions: for Mortality: mice
Procedure: Chemical convulsive agents (bicuculline, corazol, thiosemicarbazide, and picrotoxin) and the maximum electroconvulsive shock (ECS) model in the experiment the different types of seizures with their various implementation mechanisms of pathological conditions. The anticonvulsant activity of Phenotropil after a single dose for all the investigated models manifests in a pronounced positive effect on prevention of mortality in the studied doses of 100, 300, 400, 600 mg/kg. In case of bicuculline-induced seizures, mortality in the control group was 70.0%. Phenotropil (100, 300, 600 mg/kg) was effective in 100% of cases. The metrazole-induced mortality in the control was 60.0% and the positive effect of Phenotropil for mortality vs control was 45-35-0%, depending on the dose, respectively. The thiosemicarbazide-induced mortality was 90.0% in the control group, while when treated with Phenotropil (100, 300, 600 mg/kg), respectively: 60-0-0%. […] In case of MES, mortality in the control group was 100.0%, while in the Phenotropil groups (100, 300, 400 mg/kg) it was 20-0-0%, respectively. […] The anticonvulsant effect of Phenotropil prevents the development of seizures and affects the outcome of convulsive states, preventing mortality in all applied models of seizures in animals. The mechanisms of action of anticonvulsant activity of Phenotropil are probably also commensurate, various and depend on the initial state.

rats = experiment: 14-day immobilization in antiorthostatic position (Ds), thymus, spleen, adrenal mass ratios Kt; format: in vivo; conditions: Ds-conditions; for S/A: spleen/adrenals ratio (mg/100 g baseline body weight); for S/T: spleen/thymus ratio (mg/100 g baseline body weight); for T/A: thymus/adrenals ratio (mg/100 g baseline body weight)
patients = experiment: Acneiform rash, topical solution; format: in vivo, human; conditions: for Efficacy expressed in % (acne rush during hormonal alteration): humans, topically 0.1% aqueous solution, baseline control = 100
Procedure: A study of effect of Phenotropil on the scalp and face skin in seborrhea oleosa and on the scalp skin in dry seborrhea, as well in the mixed form, was performed on mixed groups of both sexes (15-37 years). The 0.1% Phenotropil solution was used. In the group with mixed form, additional Phenotropil tablets were administered at a dose of 100 mg per day (in the morning). The baseline examinations were used as control. The prepared samples were rubbed into the scalp once a day 1 or 2 hours before bedtime. In the case of acneiform rash, the skin was wiped in the morning and evening by cotton pads soaked (as usual lotion) by 0.1% aqueous Phenotropil. Washing the hair using shampoo was not recommended. A neutral baby soap “Alice” by OAO Svoboda and the rinse prepared with 25 ml of lemon juice and 100 mg Phenotropil powder per 1000.0 ml water were used. Studies were conducted for 28 calendar days with monitoring examinations every 14 days. In the dry seborrhea group, three patients withdrew from the study after two weeks due to reluctance to undergo further examination; they found it difficult to comply with the regime of the detergents use. The skin state was assessed by a 4-point system, where 0—absent, 1—the effect intensity less than 50.0%, 2—the effect intensity more than 50.0%, 3—the effect intensity more than 80% but less than 100.0% of the cases.

[3] = Daily diuresis in non-obese humans; format: in vivo, human; conditions: for Daily urine volume (ml/day, %): adult humans, background (not treated) = 100
Procedure: The effect of Phenotropil (25, 50 and 100 mg in the morning) on diuresis was investigated in non-obese groups (males and females 23-47 years) for 10 days. The daily volume of urine when treated with placebo and Phenotropil was recorded.

women = experiment: Migraine attacks, intranasal drops; format: in vivo, human
Procedure: Table 27 presents the results of studies in women (22-35 years) diagnosed with migraine without aura (simple migraine)—5 subjects, and migraine with aura (classic migraine)—5 subjects. Phenotropil as used as nasal drops (0.1% sterile solution), 10 drops three times a day for 7 days for the purpose of relief and prevention of migraine attacks at onset of prodromal phenomena and aura episodes. 5 drops of the solution were administered into each nostril. One drop of the 0.1% standard solution contained 0.05 mg of Phenotropil.

[4] = 0.1% nasal drops, 10 drops three times a day 7 days
[5] = migraine attacks, humans, intranasally 0.5 mg × 3 times per day

Q: Which results are given for `NC(=O)CN1CC(c2ccccc2)CC1=O` (racemic) [Compound 1, (RS)-2-(2-oxo-4-phenylpyrrolidine-1-yl)acetamide]?
A: decrease of catalepsy severity vs control (mice [1]; 180 minutes): decreased threefold; decrease of catalepsy severity vs control (mice [1]; after the 60 min point): 2.6 times; Catalepsy (mice [1]; haloperidol 0.5 mg/kg + 50 mg/kg i.p., 120 min): 8.5 ± 3.5 s; Catalepsy (mice [1]; haloperidol 0.5 mg/kg + 50 mg/kg i.p., 180 min, listed as Phenotropil): 4.8 s and 4.8 ± 2.1 s; Catalepsy (mice [1]; haloperidol 0.5 mg/kg + 100 mg/kg i.p., 120 min): 2.0 ± 1.0 s; Catalepsy (mice [1]; haloperidol 0.5 mg/kg + 100 mg/kg i.p., 180 min): 0.0 ± 0.0 s; Catalepsy (mice [1]; haloperidol 0.5 mg/kg + 300 mg/kg i.p., 60 min): 6.6 ± 1.9 s; Catalepsy (mice [1]; haloperidol 0.5 mg/kg + 300 mg/kg i.p., 120 min): 10.6 ± 4.5 s; Catalepsy (mice [1]; haloperidol 0.5 mg/kg + 300 mg/kg i.p., 180 min): 21.4 ± 8.4 s; effective against mortality, % of cases (mice [2]; bicuculline-induced seizures, 100, 300, 600 mg/kg): 100%; Mortality (mice [2]; Bicuculline 3.0 mg/kg + 100.0 mg/kg): 0* %; Mortality (mice [2]; Bicuculline 3.0 mg/kg + 300.0 mg/kg): 0* %; Mortality (mice [2]; Corazol 110.0 mg/kg + 100.0 mg/kg, listed as Phenotropil): 45%; Mortality (mice [2]; Corazol 110.0 mg/kg + 300.0 mg/kg, listed as Phenotropil): 35%; Mortality (mice [2]; Corazol 110.0 mg/kg + 600.0 mg/kg, listed as Phenotropil): 0%; Mortality (mice [2]; MES + 100.0 mg/kg, listed as Phenotropil, 100 mg/kg): 20%; Mortality (mice [2]; MES + 300.0 mg/kg, listed as Phenotropil, 300 mg/kg): 0%; Mortality (mice [2]; MES + 400.0 mg/kg, listed as Phenotropil, 400 mg/kg): 0%; Mortality (mice [2]; Thiosemicarbazide 18.0 mg/kg + 100.0 mg/kg, listed as Phenotropil): 60%; Mortality (mice [2]; Thiosemicarbazide 18.0 mg/kg + 300.0 mg/kg, listed as Phenotropil): 0%; Mortality (mice [2]; Thiosemicarbazide 18.0 mg/kg + 600.0 mg/kg, listed as Phenotropil): 0%; S/A (rats; 25 mg/kg): 7.6 ± 1.2; S/T (rats; 25 mg/kg): 2.2 ± 0.1; T/A (rats; 25 mg/kg): 5.5 ± 1.1; S/A (rats; 50 mg/kg): 8.2 ± 1.2; S/T (rats; 50 mg/kg): 1.6 ± 0.1; T/A (rats; 50 mg/kg): 6.6 ± 1.1; S/A (rats; 100 mg/kg): 8.8 ± 1.2; S/T (rats; 100 mg/kg): 1.2 ± 0.2; T/A (rats; 100 mg/kg): 5.5 ± 1.1; effect on acne rash (patients; 0.1% solution, one month): 79-84%; Efficacy expressed in % (acne rush during hormonal alteration) (patients; dry skin): −84 * %; Efficacy expressed in % (acne rush during hormonal alteration) (patients; oily skin): −79 * %; increase of daily urine output, average index ([3]; 25, 50, 100 mg in the morning, first three days): 30-37%; Daily urine volume (ml/day, %) ([3]; 25 mg/day): 130 * %; Daily urine volume (ml/day, %) ([3]; 50 mg/day): 137 * %; Daily urine volume (ml/day, %) ([3]; 100 mg/day): 137 * %; fluctuations in urine output ([3]; next 7 days): 5-10%; patients (of 10) with headaches and their duration decreased significantly (women; [4]): 3; patients (of 10) with no effect (women; [4]): 2; patients (of 10) with prodrome and aura completely stopped without headache attacks (women; [4]): 5; Efficacy: % of subjects with no effect (women; [5]): 20%; Efficacy: % of subjects with partial effect (women; [5]): 30%; Efficacy: subjects with 100% efficacy (women; [5]): 5/10 - 100% efficacy ^; Efficacy: subjects with no effect (women; [5]): 2/10; Efficacy: subjects with partial effect (women; [5]): 3/10
